SMILES strings stand for the structures. pIC50: −log10 of the molar value.

The target in this assay is hMAT2A (Homo sapiens (Human), UniProt P31153). The assay can be described thus: Malachite Green Assay (MAT2A enzyme inhibition). The following applies: hMAT2A 50 nM, substrates 500 uM each, 1 hour. It counts as biochemical. The method, then: The ability of the compound of present disclosure to inhibit MAT2A enzyme was determined using the Malachite Green or Phosphate Sensor Fluorescence Assay described below.
hMAT2A, sequence (P31153 whole entry): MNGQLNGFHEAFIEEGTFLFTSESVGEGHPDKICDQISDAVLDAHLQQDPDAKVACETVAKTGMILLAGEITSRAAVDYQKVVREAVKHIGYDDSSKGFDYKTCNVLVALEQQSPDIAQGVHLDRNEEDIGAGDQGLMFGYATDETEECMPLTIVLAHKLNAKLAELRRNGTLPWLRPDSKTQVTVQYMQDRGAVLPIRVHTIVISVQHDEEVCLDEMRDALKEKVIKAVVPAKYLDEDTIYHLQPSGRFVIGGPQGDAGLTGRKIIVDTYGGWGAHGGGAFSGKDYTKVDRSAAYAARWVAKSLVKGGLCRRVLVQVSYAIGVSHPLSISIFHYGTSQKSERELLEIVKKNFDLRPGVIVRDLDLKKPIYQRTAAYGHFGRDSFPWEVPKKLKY
L-methionine Substrate: Alfa Aesar catalog #J61904
ATP Substrate: Alfa Aesar cat #J60336
Malachite Green Detection Reagent: Millipore Sigma catalog #MAK307-1KT
Assay buffer: 50 mM Tris, pH 7.5/50 mM KCl/10 mM MgCl2/0.01% Brij-35/1 mM DTT/0.1% BGG
The plate was centrifuged at 1000 rpm for 1 minute and then incubated at room temperature for 1 hour. 5 μL of malachite green detection reagent was added to all the test wells and the plate was centrifuged at 1000 rpm for 1 minute and then incubated at room temperature for 30 minutes. The plate was read for absorbance at 620 nm on a plate reader (e.g., Infinite M1000).
Broadly, the pIC50 is the IC50 on a negative log10 scale, so that one unit is a factor of ten. Lower therefore signals a large IC50. Take `CN(C)c1nc(=O)n(-c2ccc(F)cc2)c2cc(Cl)ccc12` [Example 36, 4-(dimethylamino)-7-chloro-1-(4-fluorophenyl)-hydroquinazolin-2-one]: the pIC50 was > 6.70.

Regarding `N#CC1CN(c2nc(=O)n(-c3cccc(F)c3)c3cc(Cl)ccc23)C1` [Example 82, 1-(7-chloro-1-(3-fluorophenyl)-2-oxo-1,2-dihydroquinazolin-4-yl)azetidine-3-carbonitrile], the pIC50 was > 6.70.

Turning to `CNc1nc(=O)n(-c2cncnc2)c2cc(Cl)ccc12`, the pIC50 is > 6.70.

As to `CNc1nc(=O)n(-c2ccccc2)c2cc(C#N)ccc12` [Example 50, 4-(methylamino)-2-oxo-1-phenyl-1,2-dihydro-quinazoline-7-carbonitrile], the pIC50 is > 6.70.

With `CNc1nc(=O)n(-c2cccc(CCCO)c2)c2cc(Cl)ccc12` [Example 48, 7-chloro-1-[3-(3-hydroxypropyl)-phenyl]-4-(methylamino)hydro-quinazolin-2-one], the pIC50 was > 6.70.

For the compound `CNc1nc(=O)n(-c2ccccc2)c2cc(C(F)(F)F)ccc12` [Example 51, 4-(methylamino)-1-phenyl-7-(trifluoro-methyl)-quinazolin-2(1H)-one], the pIC50 is > 6.70.

Turning to `O=c1nc(N2CCCC2)c2ccc(Cl)cc2n1-c1ccccc1` [Example 67, 7-chloro-1-phenyl-4-(pyrrolidin-1-yl)-quinazolin-2(1H)-one], the pIC50 was > 6.70.

With `CNc1nc(=O)n(-c2cccc(Cl)c2)c2cc(Cl)ccc12` [Example 56, 7-Chloro-1-(3-chlorophenyl)-4-(methylamino)hydroquinazolin-2-one], the pIC50 was > 6.70.

With `CNc1nc(=O)n(-c2ccccc2)c2cc(Cl)c(F)cc12`, the pIC50 is > 6.70.

Regarding `CNc1nc(=O)n(-c2ccccc2)c2cc(C)ccc12` [Example 44, 7-methyl-4-(methylamino)-1-phenyl-quinazolin-2(1H)-one], the pIC50 is > 6.70.

On to `CNc1nc(=O)n(-c2nccs2)c2cc(Cl)ccc12` [Example 17, 7-chloro-4-(methylamino)-1-(thiazol-2-yl)-quinazolin-2(1H)-one], for which the pIC50 was > 6.70.

Take `O=c1nc(N[C@H]2CCOC2)c2ccc(Cl)cc2n1-c1ccccc1` [Example 22, (S)-7-chloro-1-phenyl-4-((tetrahydro-furan-3-yl)amino)-quinazolin-2(1H)-one]: the pIC50 was 6.30 to 6.70.

`CN(C)c1nc(=O)n(-c2ccccc2)c2cc(F)ccc12` [Example 35, 4-(dimethylamino)-7-fluoro-1-phenyl-quinazolin-2(1H)-one]: the pIC50 was > 6.70.

For the compound `CN(c1nc(=O)n(-c2cccc(F)c2)c2cc(Cl)ccc12)C1CC1` [Example 39, 7-chloro-4-(cyclopropylmethylamino)-1-(3-fluorophenyl)hydroquinazolin-2-one], the negative-log IC50 (pIC50) is > 6.70.

Consider `Nc1nc(=O)n(-c2ccccc2)c2cc(Cl)ccc12` [Example 59, 4-amino-7-chloro-1-phenylquinazolin-2(1H)-one], for which the negative logarithm of the IC50 (pIC50) was > 6.70.

Take `CN1CCN(c2nc(=O)n(-c3ccccc3)c3cc(Cl)ccc23)CC1` [Example 27, 7-chloro-4-(4-methylpiperazin-1-yl)-1-phenyl-quinazolin-2(1H)-one]: the pIC50 is 5.00 to 6.00.

With `O=c1nc(NC2COC2)c2ccc(Cl)cc2n1-c1ccccc1` [Example 21, 7-Chloro-4-(oxetan-3-ylamino)-1-phenylquinazolin-2(1H)-one], the pIC50 was 6.30 to 6.70.

With `CN(C)c1nc(=O)n(-c2cccc(NS(C)(=O)=O)c2)c2cc(Cl)ccc12` [Example 52, N-(3-(7-chloro-4-(dimethylamino)-2-oxoquinazolin-1 (2H)-yl)phenyl)-methanesulfonamide], the pIC50 was > 6.70.

In turn, `CN(C)c1nc(=O)n(-c2ccccc2)c2c(Cl)c(Cl)ccc12` [Example 42, 7,8-dichloro-4-(dimethylamino)-1-phenylquinazolin-2(1H)-one] had a negative logarithm of the IC50 (pIC50) of 6.30 to 6.70.

`CNc1nc(=O)n(-c2cn[nH]c2)c2cc(Cl)ccc12`: the pIC50 was > 6.70.

For the compound `CN(C)c1nc(=O)n(-c2cc(O)cc(F)c2)c2cc(Cl)ccc12` [Example 37, 4-(dimethylamino)-7-chloro-1-(5-fluoro-3-hydroxyphenyl)hydro-quinazolin-2-one], the pIC50 was > 6.70.

Take `COc1nc(=O)n(-c2ccccc2)c2cc(Cl)ccc12` [Example 62, 7-chloro-4-methoxy-1-phenyl-quinazolin-2(1H)-one]: the negative logarithm of the IC50 (pIC50) is 6.30 to 6.70.

With `CNc1nc(=O)n(-c2ccccc2F)c2cc(Cl)ccc12` [Example 57, 7-chloro-1-(2-fluorophenyl)-4-(methylamino)quinazolin-2(1H)-one], the negative logarithm of the IC50 (pIC50) was > 6.70.

Regarding `CNc1nc(=O)n(-c2ccccc2)c2cc(C3CC3)ccc12` [Example 45, 7-cyclopropyl-4-(methylamino)-1-phenylquinazolin-2(1H)-one], the pIC50 was > 6.70.

For `O=c1nc(N2CCCCC2)c2ccc(Cl)cc2n1-c1ccccc1` [Example 66, 7-chloro-1-phenyl-4-(piperidin-1-yl)-quinazolin-2(1H)-one], the pIC50 is > 6.70.

In the case of `CNc1nc(=O)n(-c2cccc(F)c2)c2cc(Cl)ccc12` [Example 61, 7-chloro-1-(3-fluorophenyl)-4-(methylamino)quinazolin-2(1H)-one], the negative logarithm of the IC50 (pIC50) is > 6.70.

For the compound `CN(C)CCN(C)c1nc(=O)n(-c2ccccc2)c2cc(Cl)ccc12` [Example 63, 7-chloro-4-((2-(dimethylamino)ethyl)-(methyl)-amino)-1-phenylquinazolin-2(1H)-one], the pIC50 is 5.00 to 6.00.

As to `CN(C)c1nc(=O)n(-c2cccc(O)c2)c2cc(Cl)ccc12` [Example 54], the pIC50 is > 6.70.

For `CNc1nc(=O)n(-c2cncs2)c2cc(Cl)ccc12` [Example 18, 7-chloro-4-(methylamino)-1-(thiazol-5-yl)-quinazolin-2(1H)-one], the pIC50 was > 6.70.

`CNc1nc(=O)n(-c2ccccn2)c2cc(Cl)ccc12` showed a pIC50 of 6.30 to 6.70.

The record behind these values is patent publication US11046691B1 (IDEAYA BIOSCIENCES, INC., priority 2018, dated 2021).
